{"source": "patent US20240207239A1", "about": "“COMPOSITION AND PREPARATION METHOD THEREFOR” (priority 2021, published 2024)", "origin": "cited, not measured here", "conditions": "range of pH 1-12", "data": [{"compound": "CNC(=O)c1ccc(N2C(=S)N(c3cnc(C#N)c(C(F)(F)F)c3)C(=O)C23CCC3)cc1F", "note": "[Apalutamide, 4-[7-(6-cyano-5-trifluoromethylpyridine-3-yl)-8-oxo-6-thioxo-5,7-diazaspiro[3. 4]octan-5-yl]-2-fluoro-N-methylbenzamide]", "values": [{"measurement": "solubility in aqueous medium", "value": "almost insoluble"}]}]}
